9 compounds from patent US5545669A, “Anti-inflammatory compounds” (priority 1994, dated 1996) can be followed below.

Assay [1] deals with TPA-induced Mouse Ear Inflammation. The assay can be described thus: Assay (g): TPA-induced mouse ear inflammation (ear edema and MPO). The class given is in vivo. Particulars: for TPA % change in edema / change in MPO for TPA model: topically administered, doses 0.2 (dexamethasone), 0.1 (scalaradial), 0.3 (WY 50,295), dose unit not given. On the procedure:
(§1) Male Balb/c inbred mice were obtained from Charle River Breeding Laboratories (Kingston, N.Y.). Within a single experiment mice (22-25 g) were age-matched. These in vivo experiments typically involved use of 5-6 animals/group.
TPA (12-0-tetradecanoylphorbol 13-acetate) (Sigma Chemical Company) in acetone (4 mg/20 ml) was applied to the inner and outer surfaces of the left ear of BALB/c male mice. The thickness of both ears was then measured with a dial micrometer (Mitutoyo, Japan) at both 2 and 4 hours after treatment, and the data expressed as the change in thickness (10^-3 cm) between treated and untreated ears. […] After measuring the edema, the inflammed left ears were removed and stored at -70° C. until they were assayed for MPO (myeloperoxidase) activity where appropriate.
(§2) On the day of the assay, partially thawed ear tissues were minced and then homogenized (10% w/v) with a Tissumizer homogenizer (Tekmar Co.) in 50 mM phosphate buffer (pH 6) containing 0.5% HTAB. The tissue homogenates were taken through three cycles of freeze-thaw, followed by brief sonication (10 sec). The method of Bradley et al. was used with modifications as described. […] Supernatant MPO activity was quantified kinetically (change in absorbance measured over 3 min, sampled at 15-sec intervals) using a Beckman DU-7 spectrophotometer and a Kinetics Analysis package (Beckman Instruments, Inc.). One unit of MPO activity is defined as that degrading one micromole of peroxide per minute at 25° C.
Statistical analysis was done using Student's "t" test.

For assay [2], the system named is Arachidonic acid induced ear inflammation. The assay can be described thus: Assay (h): Arachidonic acid induced ear inflammation (ear edema and MPO). The class given is in vivo, mouse. Particulars: for effect in the AA ear model (in words): at concentrations which were effective in the TPA ear model. On the procedure: as §1, §2
Arachidonic acid is dissolved in acetone (ling/ear) to the left ear of BALB/c male mice. The thickness of both ears was measured with a constant pressure thickness guage 1 hour after treatment and the data expressed as the change in thickness between treated and untreated ears. Test compounds or vehicle are given at the time of AA applciation. The inflammatory cell infiltration is measured by MPO activity as described above in the TPA ear edema assay. After the edema measurements are made, the inflamed ears are removed and assayed for MPO activity.

The test system of assay [3] is LTC4 release by human monocytes. The assay can be described thus: Assay (f): stimulated eicosanoid release by human monocytes, LTC4. The class given is cell-based. Particulars: Monocyte, 0.25 h, A23187 1 μM, 15 min. On the procedure: (§3) Human Monocyte Isolation. Leukocyte-rich leukopaks obtained from Biological Specialties (Lansdale, Pa.) were collected from male volunteers who were not taking antiinflammatory drugs. Leukopaks were centrifuged (90×g for 15 min) twice to remove the platelet-rich plasma. The cell pellet was washed by centrifugation and resuspended in HBSS without Ca^2+ or Mg^2+. Histopaque 1077 was layered under the cell suspension and centrifuged at 400×g for 30 min to obtain the buffy coat. The interfacial buffy coat, containing monocytes and lymphocytes, was removed and saved. The buffy coat was washed twice with HBSS Without Ca^2+ or Mg^2+ by centrifugation. The cell pellet (4-6×10^8 cells/30 mls) was resuspended in iso-osmotic media (RPMI-1640, 10% heat inactivated fetal bovine serum (FBS), 0.2 mM L-glutamine, 2.5 mM HEPES) and layered over an equal volume of 46% Percol mixture (10X PBS/Percol; 9.25/0.75) and 54% iso-osmotic media and centrifuged for 30 min at 1000×g (Marshall and Roshak, Biochem. Cell Biol. 71: 331-339, 1993). The monocyte population located at the interface of the Percoll gradient was removed and washed twice in HBSS without Ca^2+ or Mg^2+.
(§4) Measurement of Stimuli-Induced Eicosanoid Release Monocytes (5×10^6 /ml) were incubated as a suspension in serum-free RPMI-1640 medium containing the vehicle DMSO (<1%) or drug for 30 min at 27° C. after which vehicle or stimuli was added for the indicated time. The stimulating agent is solubilized in DMSO and appropriate vehicle controls were included in all experiments. The amount of stimuli was chosen from the linear portion of a concentration versus product curve usually representing 60-80% maximal stimulation over the indicated incubation time at 37° C. (A23187, 1 μM,(15 min). The reaction was terminated by reduction of pH through addition of citric acid and centrifugation (10 min, 400×g, 4° C.). Cell viability was monitored before and after experiments using trypan blue exclusion. The cell-free media was decanted and stored at -70° C. until analyzed. Prostaglandin E2 and LTC4 were directly measured in cell-free media using enzyme immunoassay (EIA) kits purchased from Caymen Chemical Co. (Ann Arbor, Mich.). Sample or standard dilutions were made with appropriate media and analyzed in triplicate. Results were obtained by extrapolation from a standard curve prepared in the media and expressed as pg or ng/ml of sample.

In assay [4] the test system is PGE2 release by human monocytes. Briefly: Assay (f): stimulated eicosanoid release by human monocytes, Prostaglandin E2. The class given is cell-based. Particulars: Monocyte, 0.25 h, A23187 1 μM, 15 min. On the procedure: as §3, §4
[5] abbreviates: topically administered, doses 0.2 (dexamethasone), 0.1 (scalaradial), 0.3 (WY 50,295), dose unit not given.

A value given as a limit tells only on which side of the number the result lay.

As for `CN(c1cc(C(F)(F)F)ccc1Oc1ccccc1C(=O)O)S(=O)(=O)c1cc(C(F)(F)F)cc(C(F)(F)F)c1` [Example 27, 2-[2-[3,5-bis(Trifluoromethyl)phenyl-N-methylsulfonamido]-4-trifluoromethylphenoxy]benzoic acid], the “inhibition in the MPO assay” value in assay [1] (mouse ear inflammation, MPO) is “positive inhibition”. Further, in assay [1] (mouse ear inflammation, edema), the “response in the Edema aspects of this animal model” value is reported as “not a significant response”.
Consider `CC(=O)O[C@H]1C[C@@H]2[C@@]3(C)CCCC(C)(C)[C@@H]3CC[C@@]2(C)[C@@H]2CC=C(C=O)[C@H](C=O)[C@@]12C` [scalaradial], for which the “TPA % change in edema” value in assay [1] is -46%. Also, in assay [2], the “effect in the AA ear model (in words)” value is on record as “little or no effect”. For the same compound, the “AA change in edema” value in assay [2] (setting [5]) is -11%.
`Cc1ccc(Oc2ccccc2C(=O)O)c(NS(=O)(=O)c2cc(C(F)(F)F)cc(C(F)(F)F)c2)c1` [Example 12, 2-[2-[3,5-bis(Trifluoromethyl)phenylsulfonamido]-4-methylphenoxy]benzoic acid]: the IC50 in assay [3] was 1000 nM; in assay [4] it was greater than 30000 nM.
As to `CCCCCCCCS(=O)(=O)Nc1ccccc1Oc1ccccc1C(=O)O` [Example 11, 2-[2-(Octylsulfonamido)phenoxy]benzoic acid], the IC50 in assay [3] was 1000 nM; in assay [4] it was 10000 to 20000 nM.
Consider `C[C@H](C(=O)O)c1ccc2cc(OCc3ccc4ccccc4n3)ccc2c1` [WY 50,295], for which, in assay [1], the “TPA % change in edema” value is reported as -18% and the “change in MPO for TPA model” value is given as -36. The “effect in the AA ear model (in words)” value in assay [2] was “strongly inhibits inflammation”. In addition, in assay [2] (setting [5]), the “AA change in edema” value is reported as -50%.
Consider `C[C@@H]1C[C@H]2[C@@H]3CCC4=CC(=O)C=C[C@]4(C)[C@@]3(F)[C@@H](O)C[C@]2(C)[C@@]1(O)C(=O)CO` [dexamethasone], for which, in assay [1], the “TPA % change in edema” value was -50% and the “change in MPO for TPA model” value is -54. In addition, the “effect in the AA ear model (in words)” value in assay [2] was “little or no effect”. Besides, in assay [2] (setting [5]), the “AA change in edema” value is given as -10% and the “change in MPO for AA” value is reported as 0.
Turning to `O=C(O)c1ccccc1Oc1ccccc1NS(=O)(=O)c1cc(C(F)(F)F)cc(C(F)(F)F)c1` [Example 10, 2-[2-[3,5-Bis(trifluoromethyl)phenylsulfonamido]phenoxy]benzoic acid], the figures for the IC50 in assay [3] and in assay [4] were 1000 nM and greater than 100000 nM, respectively.
In the same order, the values of `O=C(O)c1ccccc1Oc1ccc(C(F)(F)F)cc1NS(=O)(=O)c1ccc2ccccc2c1` [Example 3, 2-[2-(2-Naphthylsulfonamido)-4-trifluoromethylphenoxy]benzoic acid] are 2000 nM and greater than 30000 nM.
For the compound `CCC(C)(C)c1ccc(Oc2ccc(C(F)(F)F)cc2NS(=O)(=O)c2cc(C(F)(F)F)cc(C(F)(F)F)c2)c(C(=O)O)c1` [Example 17, 2-[2-[3,5-Bis(trifluoromethyl)phenyl]sulfonamido-4-trifluoromethylphenoxy]-5-(1,1-dimethylpropyl)benzoic acid], the IC50 in assay [3] was 50 nM; in assay [4], greater than 3000 nM.

One may read the IC50 as the point on the concentration scale where inhibition reaches its midpoint. A low value points to greater potency in that assay.
